Laboratory results taken from US10463644B2, “Uses of sesquiterpene lactone compounds and their derivatives in drugs preparation” (ACCENDATECH, priority 2013, dated 2019).
Read-outs that look alike come from different tables or passages of the source.

How the values were obtained:
cancer cells = experiment: Survival rate of cancer cells after test compound is added (flow cytometry, Annexin V-FITC/PI, clinical specimen); format: cell-based, patient; settings: Homo sapiens, 18 h, read-out: Survival rate (%) All cells (Stem cells and ordinary cells)
Summary of the method: (§1)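 Patient specimens (e.g. AML, CD34+/CD38+ stem-cell marker) separated on Ficoll; mononuclear cells at 1×10^6/mL in serum-free IMDM treated 18 h with compound. Cells stained for stem-cell markers, then Annexin V-FITC/PI, and apoptosis measured by flow cytometry within one hour.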

normal cells = experiment: Survival rate of normal cells after test compound is added (flow cytometry, Annexin V-FITC/PI); format: cell-based; settings: 18 h
Summary of the method: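 Steps: density-gradient isolation of mononuclear cells from fresh or cryopreserved clinical samples; 18-hour compound exposure at 1×10^6 cells/mL; staining for stem-cell surface markers, then Annexin V-FITC and PI; flow cytometric apoptosis analysis.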

[1] = tested on: PGE2 secreted by synoviocyte; experiment: Content of PGE2 in culture supernatant of synoviocyte of RA model rats given test compound; format: in vivo; settings: rat RA model, dose 30 mg/kg.2d; normal control 8.34 ± 1.29, NaCl 32.44 ± 10.32
Summary of the method: (§2)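 Values reflect mediator secretion by synoviocytes taken from arthritic rats dosed at 30 mg/kg.2d. Normal and NaCl groups served as references.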

cancer stem cells = experiment: Survival rate of cancer stem cells after test compound is added (flow cytometry, Annexin V-FITC/PI, clinical specimen); format: cell-based, patient; settings: Homo sapiens, 18 h
Summary of the method: as §1

[2] = tested on: IL-1β secreted by synoviocyte; experiment: Content of IL-1β in culture supernatant of synoviocyte of RA model rats given test compound; format: in vivo; settings: rat RA model, dose 30 mg/kg.2d; normal control 0.16 ± 0.034, NaCl 0.49 ± 0.136
Summary of the method: as §2

[3] = Head and neck squamous cell carcinomas
[4] = read-out: Survival rate (%) All cells (Stem cells and ordinary cells)
[5] = read-out: Survival rate (%) Stem cells

## CN(C)C[C@@H]1C(=O)O[C@H]2[C@H]1CCC1(CC1)[C@@H]1CCC3(CC3)[C@H]21 [Compound 35]
Cancer cells; AML
  viability at 10 µM: 91%
  viability at 20 µM: 87%
Cancer cells; Brain glioma
  viability at 10 µM: 92%
  viability at 20 µM: 87%
Cancer cells; Brain tumor
  viability at 10 µM: 87%
  viability at 20 µM: 83%
Cancer cells; Breast cancer
  viability at 10 µM: 93%
  viability at 20 µM: 92%
Cancer cells; CLL
  viability at 10 µM: 87%
  viability at 20 µM: 83%
Cancer cells; CML
  viability at 10 µM: 91%
  viability at 20 µM: 88%
Cancer cells; Children hepatoblastoma
  viability at 10 µM: 94%
  viability at 20 µM: 87%
Cancer cells; Colon adenocarcinoma
  viability at 10 µM: 91%
  viability at 20 µM: 88%
Cancer cells; Colorectal cancer
  viability at 10 µM: 91%
  viability at 20 µM: 87%
Cancer cells; Gastric cancer
  viability at 10 µM: 92%
  viability at 20 µM: 89%
Cancer cells; Gastrointestinal tumor
  viability at 10 µM: 92%
  viability at 20 µM: 89%
Cancer cells; Glioma
  viability at 10 µM: 87%
  viability at 20 µM: 83%
Cancer cells; [3]
  viability at 10 µM: 91%
  viability at 20 µM: 87%
Cancer cells; Laryngeal cancer
  viability at 10 µM: 89%
  viability at 20 µM: 86%
Cancer cells; Liver cancer
  viability at 10 µM: 89%
  viability at 20 µM: 86%
Cancer cells; Lung adenocarcinoma
  viability at 10 µM: 91%
  viability at 20 µM: 87%
Cancer cells; Lung cancer
  viability at 10 µM: 91%
  viability at 20 µM: 88%
Cancer cells; Malignant melanoma
  viability at 10 µM: 91%
  viability at 20 µM: 84%
Cancer cells; Nasopharynx cancer
  viability at 10 µM: 93%
  viability at 20 µM: 92%
Cancer cells; Ovarian cancer
  viability at 10 µM: 91%
  viability at 20 µM: 88%
Cancer cells; Pancreatic cancer
  viability at 10 µM: 88%
  viability at 20 µM: 81%
Cancer cells; Prostate cancer
  viability at 10 µM: 88%
  viability at 20 µM: 85%
Cancer cells; Retinoblastoma
  viability at 10 µM: 91%
  viability at 20 µM: 89%
Cancer cells; Skin cancer
  viability at 10 µM: 92%
  viability at 20 µM: 89%
Normal cells; [4]
  viability at 10 µM: 95%
  viability at 20 µM: 94%
Normal cells; [5]
  viability at 10 µM: 91%
  viability at 20 µM: 90%
[1]
  Content of PGE2 in culture supernatant of synoviocyte (x ± s): 21.54 ± 1.32 ng/mL
Cancer stem cells; AML
  viability at 10 µM: 82%
  viability at 20 µM: 73%
Cancer stem cells; Brain glioma
  viability at 10 µM: 84%
  viability at 20 µM: 78%
Cancer stem cells; Brain tumor
  viability at 10 µM: 81%
  viability at 20 µM: 75%
Cancer stem cells; Breast cancer
  viability at 10 µM: 86%
  viability at 20 µM: 78%
Cancer stem cells; CLL
  viability at 10 µM: 81%
  viability at 20 µM: 75%
Cancer stem cells; CML
  viability at 10 µM: 84%
  viability at 20 µM: 78%
Cancer stem cells; Children hepatoblastoma
  viability at 10 µM: 87%
  viability at 20 µM: 76%
Cancer stem cells; Colon adenocarcinoma
  viability at 10 µM: 84%
  viability at 20 µM: 78%
Cancer stem cells; Colorectal cancer
  viability at 10 µM: 82%
  viability at 20 µM: 73%
Cancer stem cells; Gastric cancer
  viability at 10 µM: 85%
  viability at 20 µM: 77%
Cancer stem cells; Gastrointestinal tumor
  viability at 10 µM: 85%
  viability at 20 µM: 77%
Cancer stem cells; Glioma
  viability at 10 µM: 81%
  viability at 20 µM: 75%
Cancer stem cells; [3]
  viability at 10 µM: 82%
  viability at 20 µM: 73%
Cancer stem cells; Laryngeal cancer
  viability at 10 µM: 82%
  viability at 20 µM: 76%
Cancer stem cells; Liver cancer
  viability at 10 µM: 84%
  viability at 20 µM: 74%
Cancer stem cells; Lung adenocarcinoma
  viability at 10 µM: 82%
  viability at 20 µM: 73%
Cancer stem cells; Lung cancer
  viability at 10 µM: 84%
  viability at 20 µM: 78%
Cancer stem cells; Malignant melanoma
  viability at 10 µM: 87%
  viability at 20 µM: 75%
Cancer stem cells; Nasopharynx cancer
  viability at 10 µM: 86%
  viability at 20 µM: 78%
Cancer stem cells; Ovarian cancer
  viability at 10 µM: 84%
  viability at 20 µM: 78%
Cancer stem cells; Pancreatic cancer
  viability at 10 µM: 79%
  viability at 20 µM: 72%
Cancer stem cells; Prostate cancer
  viability at 10 µM: 85%
  viability at 20 µM: 79%
Cancer stem cells; Retinoblastoma
  viability at 10 µM: 88%
  viability at 20 µM: 81%
Cancer stem cells; Skin cancer
  viability at 10 µM: 85%
  viability at 20 µM: 77%
[2]
  Content of IL-1β in culture supernatant of synoviocyte (x ± s): 0.41 ± 0.056 ng/mL
